The record followed here is ChEMBL document CHEMBL4828771, “Discovery and Development of a Potent, Selective, and Orally Bioavailable CHK1 Inhibitor Candidate: 5-((4-((3-Amino-3-methylbutyl)amino)-5-(trifluoromethyl)pyrimidin-2-yl)amino)picolinonitrile” (J Med Chem, 2021).

Molecules are shown by their SMILES. The source made the active and inactive calls. The calls are words filed in the database; no cut-off is given here.

Data set [1] in a line: Tmax in ICR mouse at 20 mg/kg, po measured after 0.083 to 48 hrs by LC-MS/MS analysis. Type of data set: ADME, organism-based. The note with it: in vivo, time 0.083-48 hrs.
Data set [2] in a line: AUCt in ICR mouse at 20 mg/kg, po measured after 0.083 to 48 hrs by LC-MS/MS analysis. The class given is ADME, organism-based. Also noted: route oral, dose 20 mg/kg, time 0.083-48 hrs. Particulars: in vivo.
The nature of data set [3]: Cmax in ICR mouse at 20 mg/kg, po measured after 0.083 to 48 hrs by LC-MS/MS analysis. Type of data set: ADME, organism-based. More on the design: route oral, time upper 48 hrs, time lower 0.083 hrs, dose 20 mg/kg. The note with it: in vivo.
In data set [4] the target is T1, Serine/threonine-protein kinase Chk1 (Homo sapiens, UniProt O14757).
T1 sequence (O14757 whole entry): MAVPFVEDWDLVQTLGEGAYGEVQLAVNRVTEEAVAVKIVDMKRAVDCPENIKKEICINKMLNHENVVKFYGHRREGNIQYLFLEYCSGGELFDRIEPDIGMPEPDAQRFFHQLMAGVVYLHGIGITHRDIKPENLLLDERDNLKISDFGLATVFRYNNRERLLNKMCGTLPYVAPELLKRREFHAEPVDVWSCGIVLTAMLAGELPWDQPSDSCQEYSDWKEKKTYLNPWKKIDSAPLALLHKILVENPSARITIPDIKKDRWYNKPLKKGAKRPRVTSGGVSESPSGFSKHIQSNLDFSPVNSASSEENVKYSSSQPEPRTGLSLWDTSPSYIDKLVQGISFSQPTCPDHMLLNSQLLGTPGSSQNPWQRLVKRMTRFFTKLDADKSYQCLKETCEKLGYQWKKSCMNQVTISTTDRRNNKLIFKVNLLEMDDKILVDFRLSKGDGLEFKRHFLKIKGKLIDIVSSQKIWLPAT
Put plainly: Inhibition of CHK1 (unknown origin) incubated for 1 hr in presence of ATP by HTRF assay.

Data set [5] is described as follows: AUC (0 to infinity) in ICR mouse at 20 mg/kg, po measured after 0.083 to 48 hrs by LC-MS/MS analysis. Type of data set: ADME, organism-based. More on the design: route oral, time upper 48 hrs, time lower 0.083 hrs, dose 20 mg/kg. Particulars: in vivo.
A short description of data set [6]: Half life in ICR mouse at 20 mg/kg, po measured after 0.083 to 48 hrs by LC-MS/MS analysis. Type of data set: ADME, organism-based. The note with it: in vivo, time 0.083-48 hrs.
A short description of data set [7]: MRT (0 to infinity) in ICR mouse at 20 mg/kg, po measured after 0.083 to 48 hrs by LC-MS/MS analysis. The note with it: in vivo, time 0.083-48 hrs. The class given is ADME, organism-based.
The test system of data set [8] is MV4-11. Put plainly: Antiproliferation activity against human MV4-11 cells assessed as reduction in cell viability incubated for 72 hrs by MTS assay. Type of data set: functional, cell-based. The note with it: MV4-11, 72 h.
For the next data set, the system named is Z-138. Put plainly: Antiproliferation activity against human Z138 cells assessed as reduction in cell viability incubated for 72 hrs by MTS assay. Particulars: Z-138, 72 h. The class given is functional, cell-based.
A further data set has as its target hERG (KCNH2) (Homo sapiens, UniProt Q12809). The experiment in a line: Inhibition of human ERG expressed in HEK293 cells at 10 uM by patch-clamp technique relative to control. The class given is cell-based. The note with it: HEK293 cells that express hERG.
For data set [9], the system named is MV4-11. Put plainly: Antitumor activity against human MV4-11 cells xenografted in mouse assessed as inhibition of tumor growth by measuring T/C ratio at 30 mg/kg, po dosed 5 days/week for 3 weeks measured twice every week. Type of data set: functional.
Data set [10] is described as follows: MRT(0 to infinity) in ICR mouse at 10 mg/kg, po measured after 0.083 to 48 hrs by LC-MS/MS analysis. The class given is ADME, organism-based. Particulars: in vivo, time 0.083-48 hrs.
A short description of data set [11]: AUCt in ICR mouse at 10 mg/kg, po measured after 0.083 to 48 hrs by LC-MS/MS analysis. Type of data set: ADME, organism-based. Also noted: route oral, dose 10 mg/kg, time 0.083-48 hrs. The note with it: in vivo.
The nature of data set [12]: Half life in ICR mouse at 10 mg/kg, po measured after 0.083 to 48 hrs by LC-MS/MS analysis. The class given is ADME, organism-based. Particulars: in vivo, time 0.083-48 hrs.
Data set [13] can be described thus: AUC(0 to infinity) in ICR mouse at 10 mg/kg, po measured after 0.083 to 48 hrs by LC-MS/MS analysis. Type of data set: ADME, organism-based. More on the design: route oral, time lower 0.083 hrs, dose 10 mg/kg, time upper 48 hrs. Particulars: in vivo.
Data set [14] can be described thus: Cmax in ICR mouse at 10 mg/kg, po measured after 0.083 to 48 hrs by LC-MS/MS analysis. Particulars: in vivo. Also noted: route oral, time upper 48 hrs, dose 10 mg/kg, time lower 0.083 hrs. Type of data set: ADME, organism-based.
Data set [15] in a line: Tmax in ICR mouse at 10 mg/kg, po measured after 0.083 to 48 hrs by LC-MS/MS analysis. Particulars: in vivo, time 0.083-48 hrs. Type of data set: ADME, organism-based.
The subject of data set [16] is HT-29. Put plainly: Induction of gamma-H2A.X in human HT-29 cells at 40 nM incubated for 24 hrs by Western blot analysis. Type of data set: functional, cell-based.
In data set [17] the test system is HT-29. The experiment in a line: Antitumor activity against human HT-29 cells xenografted in mouse assessed as reduction in tumor growth by measuring T/C ratio at 100 mg/kg, iv dosed once a week for 22 days measured twice every week. Particulars: time 22 day. The class given is functional.
Data set [18] deals with T2, Serine/threonine-protein kinase Chk1 (Homo sapiens) (UniProt O14757).
T2 sequence (whole entry): T1 sequence (O14757 whole entry)
Put plainly: Inhibition of CHK1 in human HT-29 cells assessed as increase in phosphorylation at S345 residue at 40 nM incubated for 24 hrs by Western blot analysis. The class given is cell-based.

Data set [19] concerns Mus musculus. The experiment in a line: Induction of S296 phosphorylation in tumor of mouse xenografted with human HT-29 cells at 100 mg/kg, iv dosed once a week for 22 days by Western blot analysis. The class given is functional, organism-based. The note with it: time 22.0 day.
Data set [20] addresses T2, Serine/threonine-protein kinase Chk1 (Homo sapiens). Put plainly: Inhibition of CHK1 in human HT-29 cells assessed as […] residue at 40 nM incubated for 24 hrs by Western blot analysis. Type of data set: cell-based.
The test system of data set [21] is Mus musculus. The experiment in a line: Induction of S345 phosphorylation in tumor of mouse xenografted with human HT-29 cells at 100 mg/kg, iv dosed once a week for 22 days by Western blot analysis. Type of data set: functional, organism-based. Particulars: time 22.0 day.

Sequence of hERG (KCNH2) (Q12809 whole entry): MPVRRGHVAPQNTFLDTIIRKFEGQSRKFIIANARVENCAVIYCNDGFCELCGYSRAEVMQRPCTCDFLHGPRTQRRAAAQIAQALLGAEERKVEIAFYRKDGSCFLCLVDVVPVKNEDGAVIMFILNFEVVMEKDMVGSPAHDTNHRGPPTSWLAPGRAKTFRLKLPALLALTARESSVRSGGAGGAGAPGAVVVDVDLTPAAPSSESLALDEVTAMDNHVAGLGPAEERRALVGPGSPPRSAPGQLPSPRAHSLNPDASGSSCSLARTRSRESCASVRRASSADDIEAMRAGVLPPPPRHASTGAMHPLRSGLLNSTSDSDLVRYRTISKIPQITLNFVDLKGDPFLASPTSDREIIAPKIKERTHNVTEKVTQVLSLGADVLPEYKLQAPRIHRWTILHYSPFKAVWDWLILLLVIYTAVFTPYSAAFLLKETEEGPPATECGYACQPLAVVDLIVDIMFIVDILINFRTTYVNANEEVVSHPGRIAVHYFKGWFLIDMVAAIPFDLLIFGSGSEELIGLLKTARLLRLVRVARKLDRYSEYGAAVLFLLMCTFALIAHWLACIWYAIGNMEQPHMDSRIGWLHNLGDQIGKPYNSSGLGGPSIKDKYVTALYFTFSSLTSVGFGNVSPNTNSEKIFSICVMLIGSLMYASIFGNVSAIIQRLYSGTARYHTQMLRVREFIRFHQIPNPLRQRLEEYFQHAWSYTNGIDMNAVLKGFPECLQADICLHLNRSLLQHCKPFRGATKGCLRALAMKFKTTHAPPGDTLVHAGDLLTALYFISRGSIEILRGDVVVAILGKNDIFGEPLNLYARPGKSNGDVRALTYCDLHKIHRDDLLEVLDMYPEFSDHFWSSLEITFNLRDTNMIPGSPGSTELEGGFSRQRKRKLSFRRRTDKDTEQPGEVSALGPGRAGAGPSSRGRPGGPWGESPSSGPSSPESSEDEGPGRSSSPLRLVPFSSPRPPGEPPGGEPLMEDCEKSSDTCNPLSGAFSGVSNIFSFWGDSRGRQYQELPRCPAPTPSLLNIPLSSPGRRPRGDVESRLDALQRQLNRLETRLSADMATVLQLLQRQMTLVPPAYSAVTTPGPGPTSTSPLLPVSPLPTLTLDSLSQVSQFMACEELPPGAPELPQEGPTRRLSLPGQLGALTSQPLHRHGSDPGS

On to `CNc1nc(Nc2cnc(C#N)c(O[C@@H]3CCCNC3)c2)ncc1-c1cnn(C(F)(F)F)c1`, for which, in data set [1], the Tmax was found to be 2 h. In [2], this compound returned an AUC(0-t) of 126 ng·h/mL. Besides, the Cmax in data set [3] is 93 ng/mL. Besides, in [4], the IC50 worked out at 6.8 nM. This compound also returned an AUC(0-inf) in [5] of 130 ng·h/mL. In addition, the half-life in [6] is 0.89 h. The MRT inf in data set [7] came to 2.58 h.
Take `N#Cc1ccc(Nc2ncc(C(F)(F)F)c(NCCCN)n2)cn1`: the Tmax in data set [1] amounted to 0.5 h. For the same compound, the IC50 in the data set on MV4-11 [8] is 140 nM; in [4], 20.9 nM; in the data set on Z-138, 460 nM. This compound returned an exposure AUC(0-t) in data set [2] of 3300 ng·h/mL. Also, the concentration in data set [3] peaked (Cmax) at 2860 ng/mL. The same compound showed an AUC(0-inf) in data set [5] of 4100 ng·h/mL. Also, the half-life in data set [6] is 0.76 h. Also, at hERG (KCNH2), the inhibition at 10 µM turned out to be 43.4%. The mean residence time MRT inf in data set [7] is 1.3 h. Besides, the T/C in the data set on MV4-11 [9] is listed as 29.94%.
Regarding `N#Cc1ccc(Nc2ncc(C(F)(F)F)c(N[C@H]3CC[C@H](N)CC3)n2)cn1`, in data set [10], the mean residence time MRT inf was 3.37 h. Moreover, the AUC(0-t) in data set [11] is 1430 ng·h/mL. Also, the IC50 with MV4-11 [8] was determined as 50 nM; in data set [4] it was 32.9 nM; with Z-138, 680 nM. In addition, the half-life in [12] is 2.88 h. Besides, the AUC(0-inf) in [13] turned out to be 1440 ng·h/mL. This compound had a maximum concentration (Cmax) in data set [14] of 371 ng/mL. Besides, in data set [15], the Tmax was determined as 1.42 h. The compound further had an inhibition at 10 µM against hERG (KCNH2) of 47.9%.
`CS(=O)(=O)CCNCCCNc1nc(Nc2ccc(C#N)nc2)ncc1C(F)(F)F`: the Tmax in data set [1] stood at 0.25 h. Further, the IC50 was 250 nM with MV4-11 [8], 24.3 nM in data set [4] and 630 nM in the data set with Z-138. The compound also had an AUC(0-t) in data set [2] of 2520 ng·h/mL. Moreover, in data set [3], the Cmax came to 1690 ng/mL. The AUC(0-inf) in data set [5] turned out to be 2710 ng·h/mL. In addition, in [6], the half-life is 2.38 h. This compound displayed an inhibition at 10 µM on hERG (KCNH2) of 58.5%. In addition, in data set [7], the MRT inf is 2.42 h.
Turning to `CNc1nc(Nc2cnc(C#N)c(O[C@@H]3CCCNC3)c2)ncc1C(F)(F)F`, the Tmax in [1] came out at 1.08 h. Besides, the values for the IC50 (with MV4-11 [8]; in [4]; in the data set with Z-138) were 330 nM, 7.6 nM and 1390 nM, respectively. In data set [2], this compound registered an AUC(0-t) of 166 ng·h/mL. The compound further yielded a Cmax in data set [3] of 127 ng/mL. In data set [5], this compound registered an AUC(0-inf) of 168 ng·h/mL. The half-life in data set [6] was 0.7 h. At hERG (KCNH2), this compound registered an inhibition at 10 µM of 91.6%. Moreover, the MRT inf in data set [7] is 1.57 h.
As for `Nc1ccn([C@@H]2O[C@H](CO)[C@@H](O)C2(F)F)c(=O)n1` [GEMCITABINE], the result (in the data set on HT-29 [16]; in data set [18]; in the data set on Mus musculus [19]; in data set [20]; in the data set with Mus musculus [21]) was Active. For the same compound, in the data set on HT-29 [17], the T/C amounted to 57.7%.
With `CNCCCNc1nc(Nc2ccc(C#N)nc2)ncc1C(F)(F)F`, the Tmax in data set [1] came out at 0.5 h. In addition, the IC50 in the data set on MV4-11 [8] turned out to be 240 nM; in data set [4], 12.9 nM; with Z-138 it was 300 nM. The compound further showed an AUC(0-t) in data set [2] of 6600 ng·h/mL. For the same compound, in [3], the peak concentration (Cmax) is 1530 ng/mL. Besides, in [5], the AUC(0-inf) is 6700 ng·h/mL. Also, the half-life in [6] was 4.12 h. Besides, the inhibition at 10 µM at hERG (KCNH2) came to 73.3%. For the same compound, in data set [7], the MRT inf worked out at 5.62 h. Further, the T/C with MV4-11 [9] is reported as 35.36%.
For the compound `CNc1nc(Nc2cnc(C#N)c(NC[C@@H]3CCNC3)c2)ncc1C(F)(F)F`, the IC50 came out at 140 nM with MV4-11 [8], 20.2 nM in data set [4] and 270 nM with Z-138. Also, testing at 10 µM against hERG (KCNH2) gave an inhibition of 2.4%.
Consider `CNc1nc(Nc2cnc(C#N)c(N[C@@H]3CCNC3)c2)ncc1C(F)(F)F`, for which the Tmax in [1] is 0.33 h. The IC50 in the data set on MV4-11 [8] worked out at 60 nM; in data set [4], 3.3 nM; in the data set with Z-138, 170 nM. The AUC(0-t) in [2] turned out to be 1120 ng·h/mL. In [3], this compound yielded a Cmax of 1330 ng/mL. This compound displayed an AUC(0-inf) in data set [5] of 1150 ng·h/mL. Further, the half-life in [6] was 1.4 h. This compound had an inhibition at 10 µM against hERG (KCNH2) of 17.9%. The MRT inf in data set [7] came to 1.17 h. Besides, the T/C in the data set on MV4-11 [9] worked out at 65.78%.
`CNc1nc(Nc2cnc(C#N)c(N[C@H]3CC[C@H](N)CC3)c2)ncc1C(F)(F)F`: the IC50 worked out at 70 nM in the data set on MV4-11 [8], 33.1 nM in data set [4] and 960 nM in the data set on Z-138. In addition, the inhibition at 10 µM at hERG (KCNH2) worked out at 5.3%.
The corresponding values for `N#Cc1ccc(Nc2ncc(C(F)(F)F)c(NC[C@@H]3CCCNC3)n2)cn1` are 300 nM, 23.8 nM, 1190 nM and 41.1%.
